Test results from patent US6451851B1, “Pharmaceutical composition with antiviral activity containing an hydroxymic acid derivative and an antiviral agent” (N-Gene Research Laboratories Inc., priority 1997, dated 2002).

Biological target: T1, Recombinant M-MuLV reverse transcriptase (Moloney murine leukemia virus, UniProt P03355)
T1 construct: Recombinant M-MuLV reverse transcriptase was purchased from New England Biolabs, USA; purchased New England Biolabs
Experiment: Inhibition of M-MuLV reverse transcriptase activity ((3H)dTTP incorporation)
Type: biochemical
Experimental: The enhanced antiviral effect of the pharmaceutical composition of the invention was investigated by testing the inhibitory effect thereof on reverse transcriptase activity of Moloney murine virus(M-MuLV). Recombinant M-MuLV reverse transcriptase was purchased from New England Biolabs, USA. Measurement of the activity was carried out by investigating the poli(rA)noligo(dT)12-18 template-primer directed incorporation of (^3H)dTTP(Amersham) into the cDNS.
In each case, the final volume of the reaction mixture was 20 microliters. The composition of the reaction mixture was as follows:
2 microliters of 10× reverse transcriptase buffer,
20 microgram/ml template primer,
the test compound (dissolved in 1× reverse transcriptase buffer solution).
The composition of the 10× reverse transcriptase buffer (1 liter of solution contains the following substances):
500 mM tris-hydrochloride/tris (hydroxy-methyl)-amino-methan-hydrochloride/(pH=8,3),
300 mM potassium-chloride, and
100 mM DTT (dithiotreitol).
The test materials were AZT and compound “L” added separately or together. The reaction was initiated by adding 5U reverse transcriptase. The reaction mixture was incubated for 40 min at 37° C. Then, 15 microliters of reaction mixture was transferred to Whatman DE81 filter-paper disc, washed by 5% by mass of aqueous disodium-hydrogen-phosphate buffer, by water, and then with 96% by mass of ethanol. After drying, the discs were transferred into 5 ml of scintillation liquid (OptiPhase ‘HiSafe 3’, Wallac), and the radioactivity of samples was measured by a Packard Tri-Carb 2200 CE liquid scintillation counter. Enzymatic activity was calculated in percent from the experimental results.

SMILES: Cc1cn([C@H]2C[C@H](N=[N+]=[N-])[C@@H](CO)O2)c(=O)[nH]c1=O [AZT, 3′-azido-3′-deoxythymidine]
- activity at 0.1 µM (0.1 microM/ml AZT, control = 100): 91%
- activity at 0.2 µM (0.2 microM/ml AZT, control = 100): 84%
- inhibitory effect on M-MuLV reverse transcriptase (in words) (AZT by itself, in the concentrations applied): only minor inhibitory effect

SMILES: Cl.Cl.NC(=NOCC(O)CN1CCCCC1)c1cccnc1 (stereo not drawn) [compound “L”, 0-(3-piperidino-2-hydroxy-1-propyl)nicotinic acid amid-oxime dihydrochloride]
- Activity (%) (0.02 mg/ml compound “L”, control = 100): 75%
- Activity (%) (0.03 mg/ml compound “L”, control = 100): 74%
- inhibitory effect (compound “L” alone): about 25%
